# Assay results taken from patent US20240050560A1, “SELF-SUSTAINED RELEASE IMMUNE ADJUVANT SUSPENSION, PREPARATION METHOD THEREFOR, AND USE THEREOF” (priority 2020, published 2024).
# Where a name gives a salt, the structure may show the parent alone.
# Legend:
# [1] = system: colon cancer (CT26) tumors; assay: Oxaliplatin in combination with micron-sized imiquimod suspension, two-sided tumor model; format: in vivo, mice; settings: Day 15 after treatment; 30 μL intratumoral; oxaliplatin 4 mg/mL, imiquimod 6 mg/mL
# Description: Mice were inoculated with different amounts of colon cancer (CT26) tumors on both sides of the back in mice (the inoculated amount on the left side was ⅕ of that on the right side) to establish a subcutaneous two-sided tumor model, wherein the tumor on the right side was deemed an in-situ tumor, and that on the left right was deemed a distal tumor. Once the in-situ tumors reached a size of about 100 mm^3, the mice were randomly divided into 4 groups, which were treated respectively.
# On Day 1 of the treatment, the in-situ tumor was administered by intratumoral injection, wherein the concentration of oxaliplatin was 4 mg/mL, and the concentration of imiquimod was 6 mg/mL. After administration, the tumor volume in mice was recorded to plotted a growth curve of ice.
# mouse colon CT26 tumor = assay: Oxaliplatin chemotherapy combined with imiquimod micro-formulation, in-situ and distal tumor growth; format: in vivo, mice; settings: intratumoral injection, chemotherapeutic alone
# Description: The length and width of the tumor in mice were regularly measured, and the volume of tumor was calculated as follows: (length×(width) 2)/2.
# [2] = Platinum in blood and organs (ICP-MS) after intratumoral oxaliplatin with or without imiquimod suspension; settings: platinum in blood after intratumoral injection
# Excerpt: Mice were inoculated with colon cancer (CT26) tumor cells on the back of the tumor in mice to establish a subcutaneous tumor model in mice.
# [3] = 72 h after intratumoral injection, 6 mg/kg, CT26 mice
# Description: Experimental method: Mice were transplanted with mouse colon cancer (CT26) tumor on their backs, and randomly divided to 3 groups with 3 mice in each group for the study of drug distribution behavior. • Group 1: The mice were intratumorally injected with the micromolecule imiquimod hydrochloride with an injection dose of 6 mg/kg; • Group 2: The mice were intratumorally injected with imiquimod nano-particles (with average particle size of about 100 nm) encapsulated with polylactic-glycolic acid copolymer (PLGA) with an injection dose of 6 mg/kg; and • Group 3: The mice were intratumorally injected with imiquimod microparticles (the present formulation) with an injection dose of 6 mg/kg.
# in vivo [4] = settings: mouse, whole blood, 6 mg/kg
# Description: Water-insoluble R837 powder was prepared into microparticles with a particle size of 1-3 microns, which were intratumorally injected and then monitored for the pharmacokinetics and intratumoral retention time.
# Experimental method: Mice were transplanted with mouse colon cancer (CT26) tumor on their backs, and randomly divided to 3 groups with 3 mice in each group for the pharmacokinetic study.
# Group 1: The mice were intratumorally injected with micromolecule imiquimod hydrochloride with an injection dose of 6 mg/kg.
# Group 2: The mice were intratumorally injected with imiquimod/PLGA nano-particles (with an average particle size of about 100 nm) with an injection dose of 6 mg/kg.
# Group 3: The mice were intratumorally injected with imiquimod microparticles (the present formulation) with an injection dose of 6 mg/kg.
# in vivo [5] = settings: mouse, whole blood
# Description: Mice were inoculated with CT26 tumor cells on their back to establish a CT26 subcutaneous tumor model of mice. Mice with the same tumor size were equally divided to 3 groups with 3 mice in each group.
# tumor cells = assay: Micron-sized imiquimod suspension in combination with ethanol ablation, subcutaneous tumor model; format: in vivo, mice; settings: imiquimod suspension 12 mg/mL peritumoral; absolute ethanol 30 μL intratumoral
# Excerpt: First, a subcutaneous tumor model in mice was established. In particular, mice were inoculated with tumor cells on their back. Once the tumors grew to a volume of 100 mm^3, the mice were randomly divided into 5 groups with 5 mice in each group.
# The mice were monitored for the changes in tumor volumes, and the curves of tumor growth were plotted.
structure (smiles),measurement,setting,value
"O=C1[O][Pt]2([NH][C@@H]3CCCC[C@H]3[NH]2)[O]C1=O [OXA, oxaliplatin]","Tumor Inhibition Rate, Distant tumor",[1],41.87%
same,"Tumor Inhibition Rate, In-situ tumor",[1],69.56%
same,Growth of distal tumors (FIG. 11),mouse colon CT26 tumor,does not produce significant inhibitory effect
same,Growth of in-situ tumors (FIG. 10),mouse colon CT26 tumor,can inhibit the growth of in-situ tumors
same,Tmax (H),[2],3 H
"CC(C)Cn1cnc2c(N)nc3ccccc3c21 [Micromolecule imiquimod hydrochloride, imiquimod hydrochloride]",Retention of imiquimod in tumor and main organs (FIG. 3),[3],extremely low overall retention
same,half-life,in vivo [4],12 h
same,AUC,in vivo [5],140 ng·h/mL
same,Cmax,in vivo [5],17.4 ng/mL
same,Tmax,in vivo [5],0.5 h
same,half-life,in vivo [5],7.7 h
same,Blood concentration of drug,at 48 h and 72 h after intratumoral injection 6 mg/kg,below the limit of detection
same,Average Retention Time,"intratumoral injection 6 mg/kg, CT26 mice, average of 3",11 h
"CCO [absolute ethanol, ethanol]",Tumor growth / tumor volumes (FIG. 14),tumor cells,not highly different from those of the control group
